Measured values published in PubChem BioAssay (NCI).
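The concentration for 50% growth inhibition is given as GI50. TGI denotes the concentration required for complete inhibition of growth.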

Assays:
Experiment in all cases: NCI tumour cell line growth inhibition, 384-well format
IGROV1 ovarian = system: IGROV1 ovarian
COLO 205 colon = system: COLO 205 colon
A498 renal = system: A498 renal
RXF 393 renal = system: RXF 393 renal
SF-539 CNS = system: SF-539 CNS
OVCAR-5 ovarian = system: OVCAR-5 ovarian
SNB-19 CNS = system: SNB-19 CNS
LOX IMVI melanoma = system: LOX IMVI melanoma
UACC-257 melanoma = system: UACC-257 melanoma
CCRF-CEM leukemia = system: CCRF-CEM leukemia
ACHN renal = system: ACHN renal
SN12C renal = system: SN12C renal
HCT-116 colon = system: HCT-116 colon
OVCAR-8 ovarian = system: OVCAR-8 ovarian
BT-549 breast = system: BT-549 breast
NCI/ADR-RES ovarian = system: NCI/ADR-RES ovarian
SW-620 colon = system: SW-620 colon
HOP-92 NSCLC = system: HOP-92 NSCLC
T-47D breast = system: T-47D breast
K-562 leukemia = system: K-562 leukemia
HS 578T breast = system: HS 578T breast
NCI-H460 NSCLC = system: NCI-H460 NSCLC
SNB-75 CNS = system: SNB-75 CNS
MDA-MB-231 breast = system: MDA-MB-231 breast
CAKI-1 renal = system: CAKI-1 renal
DU-145 prostate = system: DU-145 prostate
MCF7 breast = system: MCF7 breast
MOLT-4 leukemia = system: MOLT-4 leukemia
PC-3 prostate = system: PC-3 prostate

**Q.** With `CCN1C(=O)CNc2ncc(-c3ccc(-c4ncn[nH]4)nc3C)nc21` as the molecule, how does the GI50 (IGROV1 ovarian) read?
**A.** 12.4 nM

**Q.** And the TGI (IGROV1 ovarian)?
**A.** 46.7 nM

**Q.** What about the GI50 (COLO 205 colon) of the same molecule?
**A.** 21.8 nM

**Q.** And the TGI (COLO 205 colon)?
**A.** 145 nM

**Q.** And the GI50 (A498 renal)?
**A.** 14.1 nM

**Q.** What about the TGI (A498 renal) of the same molecule?
**A.** 82 nM

**Q.** And the GI50 (RXF 393 renal)?
**A.** 22.1 nM

**Q.** And the TGI (RXF 393 renal)?
**A.** 63.9 nM

**Q.** And the GI50 (SF-539 CNS)?
**A.** 36 nM

**Q.** And the TGI (SF-539 CNS)?
**A.** 271 nM

**Q.** And the GI50 (OVCAR-5 ovarian)?
**A.** 28.5 nM

**Q.** What about the TGI (OVCAR-5 ovarian) of the same molecule?
**A.** 2430 nM

**Q.** And the GI50 (SNB-19 CNS)?
**A.** 64.6 nM

**Q.** And the TGI (SNB-19 CNS)?
**A.** 706 nM

**Q.** What about the GI50 (LOX IMVI melanoma) of the same molecule?
**A.** 41.2 nM

**Q.** What about the TGI (LOX IMVI melanoma) of the same molecule?
**A.** 150 nM

**Q.** What about the GI50 (UACC-257 melanoma) of the same molecule?
**A.** 40.2 nM

**Q.** What about the TGI (UACC-257 melanoma) of the same molecule?
**A.** 270 nM

**Q.** And the GI50 (CCRF-CEM leukemia)?
**A.** 23.4 nM

**Q.** What about the TGI (CCRF-CEM leukemia) of the same molecule?
**A.** 135 nM

**Q.** And the GI50 (ACHN renal)?
**A.** 20 nM

**Q.** What about the TGI (ACHN renal) of the same molecule?
**A.** 94 nM

**Q.** And the GI50 (SN12C renal)?
**A.** 28.2 nM

**Q.** And the TGI (SN12C renal)?
**A.** 333 nM

**Q.** What about the GI50 (HCT-116 colon) of the same molecule?
**A.** 45 nM

**Q.** And the TGI (HCT-116 colon)?
**A.** 193 nM

**Q.** What about the GI50 (OVCAR-8 ovarian) of the same molecule?
**A.** 32.7 nM

**Q.** What about the TGI (OVCAR-8 ovarian) of the same molecule?
**A.** 1070 nM

**Q.** And the GI50 (BT-549 breast)?
**A.** 15.8 nM

**Q.** And the TGI (BT-549 breast)?
**A.** 53.1 nM

**Q.** And the GI50 (NCI/ADR-RES ovarian)?
**A.** 37.2 nM

**Q.** What about the TGI (NCI/ADR-RES ovarian) of the same molecule?
**A.** 220 nM

**Q.** What about the GI50 (SW-620 colon) of the same molecule?
**A.** 32 nM

**Q.** And the TGI (SW-620 colon)?
**A.** 1130 nM

**Q.** What about the GI50 (HOP-92 NSCLC) of the same molecule?
**A.** 19.6 nM

**Q.** And the TGI (HOP-92 NSCLC)?
**A.** 145 nM

**Q.** And the GI50 (T-47D breast)?
**A.** < 10 nM

**Q.** What about the TGI (T-47D breast) of the same molecule?
**A.** 34.3 nM

**Q.** And the GI50 (K-562 leukemia)?
**A.** 46.5 nM

**Q.** What about the TGI (K-562 leukemia) of the same molecule?
**A.** 1700 nM

**Q.** And the GI50 (HS 578T breast)?
**A.** 11.2 nM

**Q.** And the TGI (HS 578T breast)?
**A.** 34.7 nM

**Q.** And the GI50 (NCI-H460 NSCLC)?
**A.** 10.7 nM

**Q.** And the TGI (NCI-H460 NSCLC)?
**A.** 146 nM

**Q.** And the GI50 (SNB-75 CNS)?
**A.** < 10 nM

**Q.** What about the TGI (SNB-75 CNS) of the same molecule?
**A.** 37.9 nM

**Q.** And the GI50 (MDA-MB-231 breast)?
**A.** 23.1 nM

**Q.** And the TGI (MDA-MB-231 breast)?
**A.** 12700 nM

**Q.** And the GI50 (CAKI-1 renal)?
**A.** 18.4 nM

**Q.** And the TGI (CAKI-1 renal)?
**A.** 53.3 nM

**Q.** And the GI50 (DU-145 prostate)?
**A.** 34.1 nM

**Q.** And the TGI (DU-145 prostate)?
**A.** 240 nM

**Q.** And the GI50 (MCF7 breast)?
**A.** < 10 nM

**Q.** And the TGI (MCF7 breast)?
**A.** 101 nM

**Q.** And the GI50 (MOLT-4 leukemia)?
**A.** 11.8 nM

**Q.** And the TGI (MOLT-4 leukemia)?
**A.** 27.4 nM

**Q.** What about the GI50 (PC-3 prostate) of the same molecule?
**A.** 10.5 nM

**Q.** What about the TGI (PC-3 prostate) of the same molecule?
**A.** 48.2 nM
